Experimental data from ChEMBL document CHEMBL6177982, “Structural Optimization of Pyrazole Compounds as Hsp90 Regulators with Enhanced Antitumor Activity” (J Med Chem, 2025).

Columns and labels:
[1] = Half-life in male Sprague-Dawley rat at 10 mg/kg, IG by LC-MS/MS analysis; type: ADME, organism-based; conditions: in vivo, po
CT26 = experiment: Antiproliferative activity against mouse CT26 cells assessed as inhibition of cell proliferation incubated for 72 hrs by MTT assay; type: functional, cell-based; conditions: CT26, 72 h

A half-life [1] of 2.02 h and an IC50 (CT26) of 1970 nM were found for `O=S(=O)(/C=C/c1cn(-c2ccccc2)nc1-c1cccnc1)c1ccccc1` in this work.
